# According to the NIST ThermoML archive (doi:10.1016/j.fluid.2011.02.010):
# Numbers after ± are expanded uncertainties.
# How the values were obtained:
# [1] = xn = mol fraction of the nth substance listed; details: 101 kPa, Liquid, x2 = 0; for speed of sound: Frequency=2 MHz
# [2] = for mass density / viscosity / speed of sound: 101 kPa; for speed of sound: Frequency=2 MHz
Compound,speed of sound ([1]; 298.15 K) [m/s],mass density ([1]; 298.15 K) [kg/m3],viscosity ([1]; 298.15 K) [mPa·s],speed of sound ([1]; 303.15 K) [m/s],mass density ([1]; 303.15 K) [kg/m3],viscosity ([1]; 303.15 K) [mPa·s],speed of sound ([1]; 308.15 K) [m/s],mass density ([1]; 308.15 K) [kg/m3],viscosity ([1]; 308.15 K) [mPa·s],speed of sound ([1]; 318.15 K) [m/s],mass density ([1]; 318.15 K) [kg/m3],viscosity ([1]; 318.15 K) [mPa·s],speed of sound ([1]; 328.15 K) [m/s],mass density ([1]; 328.15 K) [kg/m3],viscosity ([1]; 328.15 K) [mPa·s],"mass density ([2]; 298.15 K, Liquid) [kg/m3]","viscosity ([2]; 298.15 K, Liquid) [mPa·s]","speed of sound ([2]; 298.15 K, Liquid) [m/s]","mass density ([2]; 303.15 K, Liquid) [kg/m3]","viscosity ([2]; 303.15 K, Liquid) [mPa·s]",other results
C[S+](C)[O-] [dimethyl sulfoxide] + CCCCn1cc[n+](C)c1.[Cl-],1496 ± 9,1095.37 ± 10,1.99 ± 0.19,1472 ± 9,1092.41 ± 10,1.8 ± 0.17,1460 ± 9,1086.07 ± 10,1.65 ± 0.16,1428 ± 9,1076.22 ± 10,1.38 ± 0.15,1412 ± 8,1066.09 ± 10,1.04 ± 0.13,–,–,–,–,–,–
CCCCn1cc[n+](C)c1.[Cl-] [1-butyl-3-methylimidazolium chloride],–,–,–,–,–,–,–,–,–,–,–,–,–,–,–,1074.43 ± 10,29.21 ± 1.9,1868 ± 11,1071.38 ± 10,25.72 ± 1.7,"speed of sound ([2]; 303.15 K, Liquid): 1860 ± 11 m/s; mass density ([2]; 308.15 K, Liquid): 1068.32 ± 10 kg/m3; viscosity ([2]; 308.15 K, Liquid): 21.21 ± 1.4 mPa·s; speed of sound ([2]; 308.15 K, Liquid): 1848 ± 11 m/s; mass density ([2]; 318.15 K, Liquid): 1062.14 ± 10 kg/m3; viscosity ([2]; 318.15 K, Liquid): 18.97 ± 1.2 mPa·s; speed of sound ([2]; 318.15 K, Liquid): 1820 ± 11 m/s; mass density ([2]; 328.15 K, Liquid): 1055.89 ± 10 kg/m3; viscosity ([2]; 328.15 K, Liquid): 16.74 ± 1.1 mPa·s; speed of sound ([2]; 328.15 K, Liquid): 1804 ± 10 m/s"
C[S+](C)[O-] [dimethyl sulfoxide] + CC[NH2+]CC.O=S(=O)([O-])O,1496 ± 9,1095.37 ± 10,1.99 ± 0.19,1472 ± 9,1092.41 ± 10,1.8 ± 0.17,1460 ± 9,1086.07 ± 10,1.65 ± 0.16,1428 ± 9,1076.22 ± 10,1.38 ± 0.15,1412 ± 8,1066.09 ± 10,1.04 ± 0.13,–,–,–,–,–,–
CC[NH2+]CC.O=S(=O)([O-])O [diethylammonium hydrogen sulfate],–,–,–,–,–,–,–,–,–,–,–,–,–,–,–,–,–,–,–,–,"mass density ([2]; 298.15 K, Metastable liquid): 1028.39 ± 10 kg/m3; viscosity ([2]; 298.15 K, Metastable liquid): 25.8 ± 1.7 mPa·s; speed of sound ([2]; 298.15 K, Metastable liquid): 1432 ± 9 m/s; mass density ([2]; 303.15 K, Metastable liquid): 1023.97 ± 10 kg/m3; viscosity ([2]; 303.15 K, Metastable liquid): 21.3 ± 1.4 mPa·s; speed of sound ([2]; 303.15 K, Metastable liquid): 1408 ± 9 m/s; mass density ([2]; 308.15 K, Metastable liquid): 1020.54 ± 10 kg/m3; viscosity ([2]; 308.15 K, Metastable liquid): 18.1 ± 1.2 mPa·s; speed of sound ([2]; 308.15 K, Metastable liquid): 1392 ± 9 m/s; mass density ([2]; 318.15 K, Metastable liquid): 1012.68 ± 10 kg/m3; viscosity ([2]; 318.15 K, Metastable liquid): 13.61 ± 0.92 mPa·s; speed of sound ([2]; 318.15 K, Metastable liquid): 1356 ± 8 m/s; mass density ([2]; 328.15 K, Metastable liquid): 1004.83 ± 10 kg/m3; viscosity ([2]; 328.15 K, Metastable liquid): 10.2 ± 0.7 mPa·s; speed of sound ([2]; 328.15 K, Metastable liquid): 1324 ± 8 m/s; Normal melting temperature ([2]; Crystal, visual observation): 81.00 ± 1 °C"
C[S+](C)[O-] [dimethyl sulfoxide],–,–,–,–,–,–,–,–,–,–,–,–,–,–,–,1095.37 ± 10,1.99 ± 0.19,1496 ± 9,1092.41 ± 10,1.8 ± 0.17,"speed of sound ([2]; 303.15 K, Liquid): 1472 ± 9 m/s; mass density ([2]; 308.15 K, Liquid): 1086.07 ± 10 kg/m3; viscosity ([2]; 308.15 K, Liquid): 1.65 ± 0.16 mPa·s; speed of sound ([2]; 308.15 K, Liquid): 1460 ± 9 m/s; mass density ([2]; 318.15 K, Liquid): 1076.22 ± 10 kg/m3; viscosity ([2]; 318.15 K, Liquid): 1.38 ± 0.15 mPa·s; speed of sound ([2]; 318.15 K, Liquid): 1428 ± 9 m/s; mass density ([2]; 328.15 K, Liquid): 1066.09 ± 10 kg/m3; viscosity ([2]; 328.15 K, Liquid): 1.04 ± 0.13 mPa·s; speed of sound ([2]; 328.15 K, Liquid): 1412 ± 8 m/s"
